Tests used:
K-562 cells = assay: Cell growth inhibition assay (CellTiter-Glo), K-562; settings: for GI50: Homo sapiens, K562, read-out: K-562 GI50; for K-562 TGI: K-562 cells, total growth inhibition, CellTiter-Glo;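 on all read-outs here: cellular ATP measured by luminescence after 4 days of exposure, 3-fold dilution series from 10 µM, DMSO vehicle-treated cells define 100%, cell-free medium wells −100%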
[1] = target: CREBBP bromodomain (His-CREBBP(1081-1197)) (Homo sapiens (Human), UniProt Q92793); assay: AlphaScreen in-vitro binding assay for CREBBP; settings: single determination or n ≧ 2 independent determinations, read-out: Biochemical IC50 CREBBP
Procedure, shortened: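 Detection used nickel-chelate acceptor plus streptavidin donor AlphaScreen beads, 1 h room temperature. Percent inhibition fitted by non-linear regression to IC50.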

THP-1 cells = assay: Cell growth inhibition assay (CellTiter-Glo), THP-1; settings: for GI50: Homo sapiens, THP-1, read-out: THP-1 GI50; for THP-1 TGI: THP-1 cells, total growth inhibition, CellTiter-Glo;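 on all read-outs here: viability read as cellular ATP luminescence after 4 days, 3-fold dilution series from 10 µM, DMSO vehicle-treated cells taken as 100%, cell-free medium wells as −100%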
BRD4 (His-Brd4(44-477)) = BRD4 (His-Brd4(44-477)) (Homo sapiens (Human), UniProt O60885); assay: TR-FRET in-vitro binding assay for BRD4; settings: single determination or n ≧ 2 independent determinations, read-out: Biochemical IC50 BRD4
Procedure, shortened: (§1)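 In this TR-FRET format, each compound was tested as an 8-point dilution series, single point per concentration, dispensed from 90% DMSO solution. Incubation lasted 35 minutes at 30° C.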

MV-4-11 cells = assay: Cell growth inhibition assay (CellTiter-Glo), MV-4-11; settings: for GI50: Homo sapiens, MV4-11, read-out: MV-4-11 GI50; for MV-4-11 TGI: MV-4-11 cells, total growth inhibition, CellTiter-Glo;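 on all read-outs here: cellular ATP luminescence after 4 days, 3-fold dilution series from 10 µM top dose, vehicle (0.1% DMSO) set to 100%, cell-free medium set to −100%, day 0 corrected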
BRD2 (His-Brd2(60-472)) = BRD2 (His-Brd2(60-472)) (Homo sapiens (Human), UniProt P25440); assay: TR-FRET in-vitro binding assay for BRD2; settings: single determination or n ≧ 2 independent determinations, read-out: Biochemical IC50 BRD2
Procedure, shortened: as §1

BRD3 (His-Brd3(20-477)) = BRD3 (His-Brd3(20-477)) (Homo sapiens (Human), UniProt Q15059); assay: TR-FRET in-vitro binding assay for BRD3; settings: single determination or n ≧ 2 independent determinations, read-out: Biochemical IC50 BRD3
Procedure, shortened: as §1

BRD2 (His-Brd2(60-472)), sequence (P25440 60-472): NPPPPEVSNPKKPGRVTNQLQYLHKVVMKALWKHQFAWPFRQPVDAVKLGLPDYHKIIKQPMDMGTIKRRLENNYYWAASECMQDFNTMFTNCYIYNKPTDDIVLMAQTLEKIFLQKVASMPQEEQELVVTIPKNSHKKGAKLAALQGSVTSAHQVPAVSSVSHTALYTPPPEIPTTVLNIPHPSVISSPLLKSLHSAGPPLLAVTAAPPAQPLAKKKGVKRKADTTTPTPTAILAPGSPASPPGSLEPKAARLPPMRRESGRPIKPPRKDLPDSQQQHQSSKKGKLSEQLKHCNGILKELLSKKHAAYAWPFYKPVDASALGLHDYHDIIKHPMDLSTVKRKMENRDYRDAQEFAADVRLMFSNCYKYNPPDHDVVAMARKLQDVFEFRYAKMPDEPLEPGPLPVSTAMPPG
CREBBP bromodomain (His-CREBBP(1081-1197)), sequence (Q92793 1081-1197): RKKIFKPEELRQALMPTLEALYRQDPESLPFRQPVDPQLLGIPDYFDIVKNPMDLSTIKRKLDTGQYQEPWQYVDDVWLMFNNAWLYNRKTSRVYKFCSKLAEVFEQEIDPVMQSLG
BRD3 (His-Brd3(20-477)), sequence (Q15059 20-477): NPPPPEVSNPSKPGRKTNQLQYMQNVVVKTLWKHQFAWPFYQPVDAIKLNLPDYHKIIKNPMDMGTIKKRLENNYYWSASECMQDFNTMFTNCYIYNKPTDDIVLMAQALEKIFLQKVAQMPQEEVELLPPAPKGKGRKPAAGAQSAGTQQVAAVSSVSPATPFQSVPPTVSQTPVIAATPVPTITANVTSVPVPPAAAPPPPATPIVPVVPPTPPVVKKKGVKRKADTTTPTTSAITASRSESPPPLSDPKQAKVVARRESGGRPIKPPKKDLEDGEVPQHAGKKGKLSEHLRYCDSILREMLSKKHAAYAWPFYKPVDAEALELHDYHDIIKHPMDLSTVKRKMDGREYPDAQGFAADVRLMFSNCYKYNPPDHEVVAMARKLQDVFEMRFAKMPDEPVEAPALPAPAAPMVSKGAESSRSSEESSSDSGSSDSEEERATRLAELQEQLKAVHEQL

| Compound | GI50 (K-562 cells) | IC50 [1] | GI50 (THP-1 cells) | IC50 (BRD4 (His-Brd4(44-477))) | GI50 (MV-4-11 cells) | IC50 (BRD2 (His-Brd2(60-472))) | IC50 (BRD3 (His-Brd3(20-477))) | K-562 TGI (K-562 cells) | THP-1 TGI (THP-1 cells) | MV-4-11 TGI (MV-4-11 cells) |
| --- | --- | --- | --- | --- | --- | --- | --- | --- | --- | --- |
| COc1ccc(-c2nc3c(n2C(C)C)[C@@H](c2ccc(Cl)cc2)N(c2cc(OC)c4nnn(C)c4c2)C3=O)cn1 [Example 114, (R)-6-(4-chlorophenyl)-1-isopropyl-5-(4-methoxy-1-methyl-1H-benzo[d][1,2,3]triazol-6-yl)-2-(6-methoxypyridin-3-yl)-5,6-dihydropyrrolo[3,4-d]imidazol-4(1H)-one] | 268 nM | 12900 nM | 118 nM | 38 nM | 77.7 nM | 87 nM | 100 nM | >10000 nM | 300.5 nM | 158.5 nM |
| COc1ccc(-c2nc3c([nH]2)[C@@H](c2ccc(Cl)cc2)N(c2cc(OC)c4nnc(C)n4c2)C3=O)cn1 [Example 126, (R)-6-(4-chlorophenyl)-5-(8-methoxy-3-methyl-[1,2,4]triazolo[4,3-a]pyridin-6-yl)-2-(6-methoxypyridin-3-yl)-5,6-dihydropyrrolo[3,4-d]imidazol-4(1H)-one] | 2270 nM | 25900 nM | 947 nM | 104 nM | 408 nM | 385 nM | 283 nM | >10000 nM | 1700 nM | 592 nM |
| Cc1cc(N2C(=O)c3nc(C)n(C(C)C)c3C2c2ccc(Cl)cc2)cn2c(C(F)F)nnc12 (centres unmarked) [Example 131, 6-(4-chlorophenyl)-5-(3-(difluoromethyl)-8-methyl-[1,2,4]triazolo[4,3-a]pyridin-6-yl)-1-isopropyl-2-methyl-5,6-dihydropyrrolo[3,4-d]imidazol-4(1H)-one] | 87.5 nM | > 37000 nM | 23.8 nM | 28 nM | 16.4 nM | 49 nM | 31 nM | >10000 nM | 55 nM | 29.5 nM |
| Cc1cc(N2C(=O)c3nc(C4=CCN(C)CC4)[nH]c3C2c2ccc(Cl)cc2)cn(C)c1=O (centres unmarked) [Example 135, 6-(4-chlorophenyl)-5-(1,5-dimethyl-6-oxo-1,6-dihydropyridin-3-yl)-2-(1-methyl-1,2,3,6-tetrahydropyridin-4-yl)-5,6-dihydropyrrolo[3,4-d]imidazol-4(1H)-one] | 806 nM | 3850 nM | 265 nM | 31 nM | 64.9 nM | 53 nM | 37 nM | >10000 nM | 964 nM | 111.5 nM |
| COc1ccc(-c2nc3c(n2C(C)C)C(c2ccc(Cl)cc2)N(c2cc(C)c4nnn(C)c4n2)C3=O)cn1 (centres unmarked) [Example 138, 6-(4-chlorophenyl)-5-(3,7-dimethyl-3H-[1,2,3]triazolo[4,5-b]pyridin-5-yl)-1-isopropyl-2-(6-methoxypyridin-3-yl)-5,6-dihydropyrrolo[3,4-d]imidazol-4(1H)-one] | 37.2 nM | > 37000 nM | 9.37 nM | 11 nM | 7.97 nM | 26 nM | 11 nM | >10000 nM | 23.6 nM | 13 nM |
| Cc1nc2c([nH]1)C(c1ccc(Cl)cc1)N(c1cc(C)c3nnc(C(F)F)n3c1)C2=O (centres unmarked) [Example 139, 6-(4-chlorophenyl)-5-(3-(difluoromethyl)-8-methyl-[1,2,4]triazolo[4,3-a]pyridin-6-yl)-2-methyl-5,6-dihydropyrrolo[3,4-d]imidazol-4(1H)-one] | 214 nM | > 37000 nM | 40.7 nM | 32.5 nM | 57.5 nM | 86 nM | 42 nM | >10000 nM | 115.5 nM | 99.2 nM |
| COc1ncccc1-c1nc2c([nH]1)C(c1ccc(Cl)cc1)N(c1cc(C)c3nnc(C(F)F)n3c1)C2=O (centres unmarked) [Example 140, 6-(4-chlorophenyl)-5-(3-(difluoromethyl)-8-methyl-[1,2,4]triazolo[4,3-a]pyridin-6-yl)-2-(2-methoxypyridin-3-yl)-5,6-dihydropyrrolo[3,4-d]imidazol-4(1H)-one] | 180 nM | > 37000 nM | 63.6 nM | 29 nM | 38.4 nM | 42 nM | 28 nM | >10000 nM | 124.5 nM | 66.8 nM |

Now from value to compound, other results behind:

| GI50 (K-562 cells) | IC50 [1] | GI50 (THP-1 cells) | IC50 (BRD4 (His-Brd4(44-477))) | GI50 (MV-4-11 cells) | IC50 (BRD2 (His-Brd2(60-472))) | IC50 (BRD3 (His-Brd3(20-477))) | Compound | K-562 TGI (K-562 cells) | THP-1 TGI (THP-1 cells) | MV-4-11 TGI (MV-4-11 cells) |
| --- | --- | --- | --- | --- | --- | --- | --- | --- | --- | --- |
| 257 nM | 3800 nM | 66.3 nM | 38 nM | 56.2 nM | 94 nM | 39 nM | COc1ncc(-c2nc3c([nH]2)C(c2ccc(Cl)cc2)N(c2cc(C)c4nnc(C)n4c2)C3=O)c(OC)n1 (centres unmarked) [Example 124, 6-(4-chlorophenyl)-2-(2,4-dimethoxypyrimidin-5-yl)-5-(3,8-dimethyl-[1,2,4]triazolo[4,3-a]pyridin-6-yl)-5,6-dihydropyrrolo[3,4-d]imidazol-4(1H)-one] | >10000 nM | 134.5 nM | 96.75 nM |
| 1230 nM | 16400 nM | 371 nM | 84.5 nM | 188 nM | 220 nM | 136 nM | COc1ncc(-c2nc3c([nH]2)[C@@H](c2ccc(Cl)cc2)N(c2cc(OC)c4nnc(C)n4c2)C3=O)c(OC)n1 [Example 128, (R)-6-(4-chlorophenyl)-2-(2,4-dimethoxypyrimidin-5-yl)-5-(8-methoxy-3-methyl-[1,2,4]triazolo[4,3-a]pyridin-6-yl)-5,6-dihydropyrrolo[3,4-d]imidazol-4(1H)-one] | >10000 nM | 947 nM | 350.5 nM |
| 1070 nM | > 37000 nM | 662 nM | 1840 nM | 209 nM | 4700 nM | 2320 nM | COc1ccc(-c2nc3c([nH]2)[C@@H](c2ccc(Cl)cc2)N(c2cc(C)c4nnc(C)n4c2)C3=O)cn1 [Example 129, (R)-6-(4-chlorophenyl)-5-(3,8-dimethyl-[1,2,4]triazolo[4,3-a]pyridin-6-yl)-2-(6-methoxypyridin-3-yl)-5,6-dihydropyrrolo[3,4-d]imidazol-4(1H)-one] | >10000 nM | 1080 nM | 343 nM |
| 1940 nM | 2400 nM | 526 nM | 180 nM | 167 nM | 230 nM | 160 nM | Cc1cc(N2C(=O)c3nc(N4CCOCC4)n(C)c3C2c2ccc(Cl)cc2)cn(C)c1=O (centres unmarked) [Example 130, 6-(4-chlorophenyl)-5-(1,5-dimethyl-6-oxo-1,6-dihydropyridin-3-yl)-1-methyl-2-morpholino-5,6-dihydropyrrolo[3,4-d]imidazol-4(1H)-one] | >10000 nM | 1210 nM | 390.5 nM |
| 51.8 nM | 27500 nM | 12.6 nM | < 11 nM | 9.44 nM | 19 nM | 12 nM | COc1ncccc1-c1nc2c(n1C(C)C)C(c1ccc(Cl)cc1)N(c1cc(C)c3nnc(C(F)F)n3c1)C2=O (centres unmarked) [Example 132, 6-(4-chlorophenyl)-5-(3-(difluoromethyl)-8-methyl-[1,2,4]triazolo[4,3-a]pyridin-6-yl)-1-isopropyl-2-(2-methoxypyridin-3-yl)-5,6-dihydropyrrolo[3,4-d]imidazol-4(1H)-one] | >10000 nM | 33.15 nM | 18.9 nM |
| 142 nM | 5400 nM | 65.6 nM | 23 nM | 35.1 nM | 35 nM | 19.5 nM | COc1ncccc1-c1nc2c([nH]1)C(c1ccc(Cl)cc1)N(c1cc(C)c3nnn(C)c3c1)C2=O (centres unmarked) [Example 133, 6-(4-chlorophenyl)-5-(3,7-dimethyl-3H-benzo[d][1,2,3]triazol-5-yl)-2-(2-methoxypyridin-3-yl)-5,6-dihydropyrrolo[3,4-d]imidazol-4(1H)-one] | >10000 nM | 137.5 nM | 60.8 nM |
| 610 nM | 1680 nM | 120 nM | 38 nM | 72.4 nM | 80 nM | 35 nM | Cc1cc(N2C(=O)c3nc(C4=CCOCC4)[nH]c3C2c2ccc(Cl)cc2)cn(C)c1=O (centres unmarked) [Example 134, 6-(4-chlorophenyl)-2-(3,6-dihydro-2H-pyran-4-yl)-5-(1,5-dimethyl-6-oxo-1,6-dihydropyridin-3-yl)-5,6-dihydropyrrolo[3,4-d]imidazol-4(1H)-one] | >10000 nM | 399 nM | 141 nM |

Source: patent US9890166B2, “Imidazopyrrolidine derivatives and their use in the treatment of disease” (NOVARTIS AG, priority 2013, dated 2018)
